Assay results: a melting point compilation (Tetko et al.; mined from patent text by program, amines drawn as free bases though some values may be those of a salt)

SMILES	melting point [°C]
CCC(C)CNC(=S)NS(=O)(=O)c1sc(Cl)cc1N (configuration not stated)	116 to 118
O=C(O)Cc1cc(C(=O)C=Cc2ccc(Cl)cc2Cl)ccc1O	232
NC(=O)N1C(=O)Cc2ccccc21	179 to 180
CCCNC(=O)N(C)Cc1cccc2c1C(=O)N(C1CCC(=O)NC1=O)C2=O (configuration not stated)	210 to 212
COCCNc1c([N+](=O)[O-])cc(C)cc1[N+](=O)[O-]	75
CCCCCCCCCOC1CCC(=O)N1 (configuration not stated)	46 to 48
NS(=O)(=O)Oc1ccc(F)cc1	82.5 to 85.5
CCOC(=O)c1sc(N2CCN(Cc3ccc(C(F)(F)F)cc3)C2=O)nc1C	126 to 127
CCOC(=O)c1ccc(F)c([N+](=O)[O-])c1	50
NS(=O)(=O)c1ccc2c(c1)C(=O)C1(CCOC1=O)S2 (configuration not stated)	199 to 201
CN1C(=O)C(=CC(=O)O)SC1=Nc1ccc(Cl)c(Cl)c1	225 to 226
CCCCCCCCCCCCCCOc1ccc(C(=O)C(Br)c2ccc([N+](=O)[O-])cc2)cc1 (configuration not stated)	55 to 56
N#Cc1c2c(nn1-c1ccc(Cl)cc1F)CCCC2	83 to 84
CCN(CC)c1ccc([N+](=O)[O-])cc1C#N	83 to 85
O=C(O)CCNC(=O)C(Cl)(Cl)Cl	102 to 110
Cc1nc(C=O)c2n1-c1ccc(Cl)cc1C(c1ccccc1)=NC2	218 to 220
CC(C)(C)OC(=O)NC1CCCOCC=CC2CC2(C(=O)NS(=O)(=O)C2CC2)NC(=O)C2CC(OC(=O)NCC3CCCCC3)CN2C1=O (configuration not stated)	142 to 144
C[Si](C)(C)C=Cc1cn(C2OC(CO)C(O)C2F)c(=O)[nH]c1=O (configuration not stated)	164 to 165
CCOC(=O)c1nc(C2CC2)nc(N)c1/C=C/[Si](C)(C)C	99 to 101
CCn1c([N+](=O)[O-])cnc1-c1nnc2ccc(Cl)nn12	164 to 166
CNC(=S)Nc1ccccc1	113
CNC(=O)Oc1ccc2c(ccn2NCCCc2ccncc2F)c1	165 to 166
NC(=O)CCCSc1cccc(Br)n1	87 to 88
CC(C)c1cccc([N+](=O)[O-])c1C#N	121 to 124
CCCCCCN1C(=O)C(=CC(=O)O)SC1=Nc1ccccc1	145 to 146
CNS(=O)(=O)c1cn(C)c2cc(C)ccc2c1=O	237 to 240
NC(=O)c1[nH]c2ccc(Cl)cc2c1S(=O)(=O)c1cc(Cl)cc(Cl)c1	258 to 260
O=c1c2scc(Br)c2ncn1O	244 to 247
CCN1C(=O)C(C(=O)c2cccs2)c2cc(Cl)cnc21 (configuration not stated)	111 to 112
Cc1cc2c3c(c1)[nH]c(=O)n3CC(C)NC2 (configuration not stated)	199

Further lines, results first:

melting point [°C]	SMILES
298 to 300	NS(=O)(=O)c1ccc(-c2[nH]c3ccccc3c2-c2ccc(Cl)cc2)cc1
159 to 161	CN(C)C=Nc1ccc(-c2ncnn2-c2ccc(F)cc2)cc1
156 to 158	[O-][N+]1=Cc2cccc3c2C(C1)c1ccccc1CC3 (configuration not stated)
195 to 197	Cc1cc(C2CN(C(=O)Nc3ccc(OC(F)(F)F)cc3)N=C2c2ccccc2)on1 (configuration not stated)
95 to 98	COC(=O)CCc1oc2ccc(C#N)cc2c1C(=O)c1ccc(OC)cc1
145 to 147	CNC(=O)C1(CCCN2CCCCC2)CC=CCC1c1ccccc1 (configuration not stated)
194 to 195	O=C(Cc1ccccc1[N+](=O)[O-])c1c(O)c2cccnc2n(-c2ccccc2)c1=O
130 to 134	CNCc1ccc2c(c1)C(Cc1ccnc(F)c1)(Cc1ccnc(F)c1)c1ccccc1-2
77 to 79	COc1ccc(C[C@H](CC(=O)N2CCOCC2)C(=O)OCc2ccccc2)cc1
78 to 79	CCOC(=O)COc1cc(OCC=C(C)C)ccc1C(=O)C=Cc1ccc(C(C)(C)C)cc1
195 to 197	NC1=NN(c2ccccc2)C(c2ccccc2)C1 (configuration not stated)
120 to 121	CC(COc1c(-c2ccccc2)c(=O)oc2c(-c3ccccc3)cccc12)CN1CCOCC1 (configuration not stated)
98.6	COCCO[C@@H]1c2ccn3c(C)c(C)nc3c2N[C@H](c2ccccc2)[C@H]1OC(=O)CCCCBr
193 to 194	CN(C)c1ccc(-c2cc(F)c(F)cc2-c2ccc(S(N)(=O)=O)cc2)cc1Cl
102 to 103	Cn1c2c(ccc1=O)C(NCCc1ccc(Cl)cc1Cl)CCC2 (configuration not stated)
119 to 121	CS(=O)(=O)c1ccc(Oc2ccc(Cl)c(Cl)c2)c(N)c1
215 to 217	Cc1nc(-c2ccc(Cl)cc2)n(-c2ccc(S(N)(=O)=O)cn2)n1
155 to 157	O=C1c2ccccc2C(=O)N1OCc1cn(C(c2ccccc2)(c2ccccc2)c2ccccc2)cn1
> 300	Cn1ncc(/C=C/C(=O)Nc2ccc(Cc3nc4ccccc4[nH]3)cc2)c1-c1ccc(F)cc1
80 to 82	Cc1ccc(Oc2ccc([N+](=O)[O-])cn2)cc1
246 to 248	Oc1ccc2c(ccn2-c2ccnc(N[C@H]3CC[C@H](O)CC3)n2)c1

melting point [°C]	SMILES
79 to 81	CCCCCCCCCCCCCCCCCCOc1ccc(OCCCOc2ccc(OCc3ccccc3)cc2)c(C(=O)OC)c1
134	CCOC(=O)COc1cc(-c2ccc(C)cc2)nc2cccc(C(F)(F)F)c12
197 to 199	Cc1c(NC(=O)CC(C)(C)C)c(C)c2c(c1-c1cccc(N(C)C)c1)OCC2c1ccc(C(C)C)cc1 (configuration not stated)
108 to 109	O=CNCc1ccc(CN2CCN(c3ccccc3)CC2)cc1
320 to 325	CN(C)CC(=O)NCc1ccc(-c2cc3c(Nc4ccc(F)c(Cl)c4)ncnc3[nH]2)cc1
215	Cc1ccc(C=Cc2ccc(Br)cc2)cc1
164 to 166	O=C(O)c1cc(OCc2ccccc2)c(Cc2ccccc2)c(S(=O)(=O)Cl)c1
205 to 208	CCCCOc1cc2c(nc(O)n2Cc2ccccc2)c(N)n1
83 to 85	CCC(COC)NC(=O)C(Cc1ccc(OCc2ccccc2)cc1)NC(=O)C(CC(C)C)N(C)CCC(C)C (configuration not stated)
144	O=C(c1ccc(F)cc1)C1CCN(CCn2c(-c3ccccc3)nc3ccccc3c2=O)CC1
255 to 257	CCn1nc(-c2ccccc2)c(C(=O)O)c(Nc2cccnc2)c1=O
137 to 139	CCOc1nc(-c2ccc(F)cc2C)c2ccc(=O)n(-c3ccccc3F)c2n1
228 to 230	O=C1NCCN1c1ccc(S(=O)(=O)Nc2ccc3c(c2)CCC3)cc1
44	CCCCCc1ccc(-c2ccc(-c3ccc(CC)cc3)cc2F)s1
172 to 173	N#Cc1csc(-c2csc(C(O)(Cn3cncn3)c3ccc(F)cc3F)c2)n1 (configuration not stated)
120 to 121	O=S(=O)(Nc1ccccc1COc1cccc2cccnc12)c1cccc(C(F)(F)F)c1
81 to 82	Cc1csc(Cc2ccc([N+](=O)[O-])cc2)n1
197 to 198	O=C(O)c1ccc2oc(Cc3cccnc3)cc2c1
222 to 228	COc1ccc(C(=O)Nc2ccccc2)cc1NS(=O)(=O)c1cc(Cl)cc(Cl)c1
118 to 119	CC(C)Cn1cc(F)c(NCc2ccccc2F)nc1=O
280	COc1ccc(CC(=O)Nc2cccc3c2C(=O)c2c-3n[nH]c2-c2ccc(OC)cc2)cc1
